In ChEMBL document CHEMBL1201862, “PubChem BioAssay data set” (2004):
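Tested at 5 concentrations; 48 h exposure; 96-well plates; endpoints linearly interpolated, else capped at highest concentration. GI50: concentration for 50% inhibition of growth.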 Active and inactive are the calls of the source. Cut-off read from the data, not from the text of the source: active = GI50 up to about 1.1 µM and inactive = higher.

Assays:
Assay in all cases: NCI tumour cell line growth inhibition, 48 h
786-0 = system: 786-0
A549 = system: A549
CAKI-1 = system: CAKI-1
CCRF-CEM = system: CCRF-CEM
COLO 205 = system: COLO 205
DU-145 = system: DU-145
EKVX = system: EKVX
HCC 2998 = system: HCC 2998
HCT-15 = system: HCT-15
HL-60 = system: HL-60
HOP-62 = system: HOP-62
HT-29 = system: HT-29
IGROV-1 = system: IGROV-1
K562 = system: K562
KM12 = system: KM12
M14 = system: M14
MCF7 = system: MCF7
MDA-MB-231 = system: MDA-MB-231
MDA-N = system: MDA-N
MOLT-4 = system: MOLT-4
Malme-3M = system: Malme-3M
NCI-H23 = system: NCI-H23
OVCAR-8 = system: OVCAR-8
PC-3 = system: PC-3
RPMI-8226 = system: RPMI-8226
RXF 393 = system: RXF 393
SF-268 = system: SF-268
SF-295 = system: SF-295
SK-MEL-28 = system: SK-MEL-28
SK-MEL-5 = system: SK-MEL-5
SK-OV-3 = system: SK-OV-3
SN12C = system: SN12C
SNB-75 = system: SNB-75
SW-620 = system: SW-620
T47D = system: T47D
TK-10 = system: TK-10
UACC-257 = system: UACC-257
UACC-62 = system: UACC-62
A498 = system: A498
ACHN = system: ACHN
HCT-116 = system: HCT-116
Hs-578T = system: Hs-578T
NCI-H226 = system: NCI-H226
NCI-H460 = system: NCI-H460
NCI-H522 = system: NCI-H522
OVCAR-3 = system: OVCAR-3
OVCAR-5 = system: OVCAR-5
SF-539 = system: SF-539
SK-MEL-2 = system: SK-MEL-2
SR = system: SR
U-251 = system: U-251

## CC1OC(c2ccc3c(OCc4ccccc4)cccc3c2O)CC(OCc2ccccc2)[C@H]1OCc1ccccc1 (stereo partly drawn)
786-0
  GI50: > 10 µM (inactive)
A549
  GI50: > 10 µM (inactive)
CAKI-1
  GI50: > 10 µM (inactive)
CCRF-CEM
  GI50: > 10 µM (inactive)
COLO 205
  GI50: > 10 µM (inactive)
DU-145
  GI50: > 10 µM (inactive)
EKVX
  GI50: > 10 µM (inactive)
HCC 2998
  GI50: > 10 µM (inactive)
HCT-15
  GI50: > 10 µM
HL-60
  GI50: > 10 µM (inactive)
HOP-62
  GI50: > 10 µM (inactive)
HT-29
  GI50: > 10 µM (inactive)
IGROV-1
  GI50: > 10 µM (inactive)
K562
  GI50: > 10 µM (inactive)
KM12
  GI50: > 10 µM (inactive)
M14
  GI50: > 10 µM (inactive)
MCF7
  GI50: > 10 µM (inactive)
MDA-MB-231
  GI50: > 10 µM (inactive)
MDA-N
  GI50: > 10 µM (inactive)
MOLT-4
  GI50: > 10 µM (inactive)
Malme-3M
  GI50: > 10 µM (inactive)
NCI-H23
  GI50: > 10 µM (inactive)
OVCAR-8
  GI50: > 10 µM (inactive)
PC-3
  GI50: > 10 µM (inactive)
RPMI-8226
  GI50: > 10 µM (inactive)
RXF 393
  GI50: > 10 µM (inactive)
SF-268
  GI50: > 10 µM (inactive)
SF-295
  GI50: > 10 µM (inactive)
SK-MEL-28
  GI50: > 10 µM (inactive)
SK-MEL-5
  GI50: > 10 µM (inactive)
SK-OV-3
  GI50: > 10 µM (inactive)
SN12C
  GI50: > 10 µM (inactive)
SNB-75
  GI50: > 10 µM (inactive)
SW-620
  GI50: > 10 µM (inactive)
T47D
  GI50: > 10 µM (inactive)
TK-10
  GI50: > 10 µM (inactive)
UACC-257
  GI50: > 10 µM (inactive)
UACC-62
  GI50: > 10 µM (inactive)

## Cc1ncc([N+](=O)[O-])n1CC(O)Cn1cnc([N+](=O)[O-])n1 (stereo not drawn)
786-0
  GI50: > 100 µM (inactive)
A498
  GI50: 2.84 µM (inactive)
A549
  GI50: > 100 µM (inactive)
ACHN
  GI50: > 100 µM (inactive)
CCRF-CEM
  GI50: > 100 µM (inactive)
EKVX
  GI50: > 100 µM (inactive)
HCC 2998
  GI50: > 100 µM (inactive)
HCT-116
  GI50: > 100 µM (inactive)
HCT-15
  GI50: > 100 µM
HL-60
  GI50: 64.1 µM (inactive)
HOP-62
  GI50: > 100 µM (inactive)
HT-29
  GI50: > 100 µM (inactive)
Hs-578T
  GI50: > 100 µM (inactive)
K562
  GI50: > 100 µM (inactive)
KM12
  GI50: > 100 µM (inactive)
MCF7
  GI50: > 100 µM (inactive)
MOLT-4
  GI50: > 100 µM (inactive)
Malme-3M
  GI50: 55.1 µM (inactive)
NCI-H226
  GI50: > 100 µM (inactive)
NCI-H23
  GI50: > 100 µM (inactive)
NCI-H460
  GI50: > 100 µM (inactive)
NCI-H522
  GI50: > 100 µM (inactive)
OVCAR-3
  GI50: > 100 µM (inactive)
OVCAR-5
  GI50: > 100 µM (inactive)
OVCAR-8
  GI50: > 100 µM (inactive)
PC-3
  GI50: > 100 µM (inactive)
RPMI-8226
  GI50: > 100 µM (inactive)
SF-268
  GI50: > 100 µM (inactive)
SF-295
  GI50: > 100 µM (inactive)
SF-539
  GI50: > 100 µM (inactive)
SK-MEL-28
  GI50: > 100 µM (inactive)
SK-MEL-2
  GI50: > 100 µM (inactive)
SK-MEL-5
  GI50: > 100 µM (inactive)
SN12C
  GI50: > 100 µM (inactive)
SNB-75
  GI50: > 100 µM (inactive)
SR
  GI50: > 100 µM (inactive)
SW-620
  GI50: > 100 µM (inactive)
TK-10
  GI50: > 10 µM (inactive)
U-251
  GI50: > 100 µM (inactive)
UACC-257
  GI50: > 100 µM (inactive)

## O=C(CCCn1cnc([N+](=O)[O-])n1)NCCCn1ccnc1[N+](=O)[O-]
786-0
  GI50: > 100 µM (inactive)
A498
  GI50: 9.35 µM (inactive)
A549
  GI50: > 100 µM (inactive)
ACHN
  GI50: > 100 µM (inactive)
CCRF-CEM
  GI50: > 100 µM (inactive)
EKVX
  GI50: > 100 µM (inactive)
HCC 2998
  GI50: > 100 µM (inactive)
HCT-116
  GI50: > 100 µM (inactive)
HCT-15
  GI50: > 100 µM
HL-60
  GI50: 78.9 µM (inactive)
HOP-62
  GI50: > 100 µM (inactive)
HT-29
  GI50: > 100 µM (inactive)
Hs-578T
  GI50: > 100 µM (inactive)
K562
  GI50: > 100 µM (inactive)
KM12
  GI50: > 100 µM (inactive)
MCF7
  GI50: > 100 µM (inactive)
MOLT-4
  GI50: > 100 µM (inactive)
Malme-3M
  GI50: 83.2 µM (inactive)
NCI-H226
  GI50: > 100 µM (inactive)
NCI-H23
  GI50: > 100 µM (inactive)
NCI-H460
  GI50: > 100 µM (inactive)
NCI-H522
  GI50: > 100 µM (inactive)
OVCAR-3
  GI50: > 100 µM (inactive)
OVCAR-5
  GI50: > 100 µM (inactive)
OVCAR-8
  GI50: > 100 µM (inactive)
PC-3
  GI50: > 100 µM (inactive)
RPMI-8226
  GI50: > 100 µM (inactive)
SF-268
  GI50: > 100 µM (inactive)
SF-295
  GI50: > 100 µM (inactive)
SF-539
  GI50: > 100 µM (inactive)
SK-MEL-28
  GI50: > 100 µM (inactive)
SK-MEL-2
  GI50: 32.4 µM (inactive)
SK-MEL-5
  GI50: 61.8 µM (inactive)
SN12C
  GI50: > 100 µM (inactive)
SNB-75
  GI50: > 100 µM (inactive)
SR
  GI50: > 100 µM (inactive)
SW-620
  GI50: 68.2 µM (inactive)
TK-10
  GI50: 99.8 µM (inactive)
U-251
  GI50: > 100 µM (inactive)
UACC-257
  GI50: > 100 µM (inactive)
